{"source": "patent US8980259B2", "about": "“Combination therapy” (Novartis AG, priority 2012, dated 2015)", "key": {"MCF7 xenograft": {"system": "MCF7 xenograft", "assay": "MCF7 xenograft in mice, tumor volume", "type": "in vivo", "method": "MCF-7 cells (purchased from American Type Culture Collection (ATCC)) were tested free of mycoplasma and viral contamination in the IMPACT VIII PCR assay panel (RADIL, MU Research Animal Diagnostic Laboratory, Columbia, Mo.). MCF-7 cells were cultured in EMEM medium (ATCC#30-2003) containing 10% heat-inactivated fetal bovine serum. Mice were implanted with 17b-estradiol pellets, 0.18 mg/pellet, 90-day release (Innovative research of America Catalog #NE-121), between the shoulder blades three days before the cell implant.\nTreatment started on day 21 and concluded by day 59. Tumor volume of each group was measured. The effect of COMPOUND A and ANTIBODY A, as monotherapy and combination, was assessed by comparing: • (a) the percent change between Day 1 and endpoint day in the mean tumor volume of the treated group (T) and the control group (C) (herein referred to as “T/C”), and • (b) the percent change between Day 1 and the endpoint day in the mean tumor volume of the treated group compared to its initial volume (herein referred to as “T/T0”)."}, "[1]": {"system": "MCF7 human breast carcinoma cells", "assay": "Cell viability / proliferation assay (CELLTITER-GLO, dose matrix) in MCF7 cells", "type": "cell-based", "method": "FIG. 1 is a series of graphs showing the effect of the combination of COMPOUND A with ANTIBODY A on MCF7 cell proliferation under the presence of IGF-1 (100 ng/ml). Briefly, MCF7 cells were treated in 384-well format for 5 days with COMPOUND A and ANTIBODY A in the presence of 100 ng/ml of IGF1 in SD medium. […] Each data point represents averaged data from 3 wells+standard deviation, and the color spectrum also represents the level of the inhibition. A red rectangle highlights the region where the combination is more efficacious than the single agents the same dose.\nCOMPOUND A (10 mM), stored in aliquots at −20° C. ANTIBODY A (0.2 mM in 1% BSA), stored in aliquots at 4° C. […]\nCell viability was determined by measuring cellular ATP content using the CELLTITER-GLO (CTG) luminescent cell viability assay (Promega). […] An equal volume of the CTG reagents was added to each well at the end of the compound treatment and luminescence was recorded on an ENVISION plate reader (Perkin Elmer). Reduced and enhanched luminescent signal values (responses) were calculated relative to untreated (control) cells. […]\nThe synergistic interaction (analyzed using Chalice software [CombinatoRx, Cambridge Mass.]) was calculated by comparing the response from a combination to the response of the agent acting alone, against the drug-with-itself dose-additive reference model. […]"}}}
{"smiles": "Cc1nc(NC(=O)N2CCC[C@H]2C(N)=O)sc1-c1ccnc(C(C)(C)C(F)(F)F)c1", "note": "[COMPOUND A, (S)-Pyrrolidine-1,2-dicarboxylic acid 2-amide 1-({4-methyl-5-[2-(2,2,2-trifluoro-1,1-dimethyl-ethyl)-pyridin-4-yl]-thiazol-2-yl}-amide)]", "values": [{"measurement": "tumor outcome in MCF7 xenograft (summary in words)", "setting": "MCF7 xenograft; MCF7 xenograft in mice, Experiment 2 summary", "value": "tumor stasis"}, {"measurement": "T/C (percent change in mean tumor volume, treated vs control group)", "setting": "MCF7 xenograft; MCF7 xenograft mice, COMPOUND A 30 mg/kg qd po, ANTIBODY A 12 mg/kg q2w ip, treatment day 21 to day 59", "value": 10, "unit": "%"}, {"measurement": "MCF7 growth inhibition in vitro (summary in words)", "setting": "[1]; MCF7, Experiment 1 summary", "value": "concentration-dependent tumor growth inhibition"}, {"measurement": "anti-proliferative activity (in words)", "setting": "[1]; MCF7, single agent, either in the presence or absence of IGF1", "value": "concentration dependent anti-proliferative activity"}]}
